Patent publication US20250082651A1, “GANAXOLONE FOR USE IN TREATING GENETIC EPILEPTIC DISORDERS” (Marinus Pharmaceuticals, Inc., priority 2017, published 2025)
Several values for one entry are separate records, joined by “and”; a condition that tells them apart may be missing. Identical values can stand only once. Entries after “also recorded” stand apart in the source; their conditions may differ.

Tested on: children with CDKL5 Deficiency Disorder
Assay: Phase 2 open-label trial, CDKL5 (CDD) cohort, seizure efficacy
Assay type: in vivo, human
Text: Example 3 concerns a Phase 2 Multicenter, Open-Label Proof-of-Concept Trial of ganaxolone (GNX) in cohorts of children having genetic epilepsies (PCDH19, CDKL5 LGS, and CSWS) (ClinicalTrials.gov Identifier: NCT02358538). There were 11 female children with PCDH19 epilepsy between 5-16 years old with a confirmed genetic mutation. There were 6 female and 1 male children with confirmed genetic mutations in the CDKL5 cohort. There were 10 children in the Lennox Gastaut Syndrome cohort. Two children with CSWS were enrolled into the study. The study was conducted with 12 weeks baseline, and up to 26 weeks of treatment followed by a 52 week open label treatment. The primary efficacy was the percentage change in seizure frequency per 28 days relative to baseline calculated using daily seizure diary. [Time Frame: 26 weeks]. Secondary Outcome Measures were: Clinician Global Impression of Change score as assessed by questionnaire. [Time Frame: 26 Weeks]; Patient Global Impression of Change score as assessed by questionnaire. [Time Frame: 26 Weeks]; Evaluation of safety and tolerability of open-label ganaxolone as adjunctive therapy for uncontrolled seizures in children with rare genetic epilepsies, based on adverse event log and other clinical safety assessments. [Time Frame: 26 weeks]; Responder rates [Time Frame: 26 weeks]; and Seizure free days [Time Frame: 26 weeks].
Following screening and baseline evaluations, consenting patients enrolled into a 26-week study during which investigators were allowed to flexibly dose ganaxolone up to a dose of 1,800 mg/day for patients whose body weight was >30 kg, or up to 63 mg/kg/day for patients whose body-weight was <30 kg. The primary efficacy measure is % change from baseline in the 28-day seizure frequency count. Safety and tolerability were within the secondary objectives of the study.
In this study, oral ganaxolone suspension or capsules were administered up to a total of 63 mg/kg/day (maximum 1800 mg/day) over 2-4 weeks. About six-eight titration steps are used, depending on the size of the patient. Children larger than 30 kg may take the ganaxolone capsules. The ganaxolone oral suspension was administered through an oral dosing syringe three times daily. The ganaxolone capsules were administered twice daily. The patients experience better absorption of the ganaxolone with meals (milk).
After establishing baseline seizure frequency, qualifying subjects entered the study and were treated with open-label ganaxolone oral suspension or ganaxolone capsules at doses up to a maximum of 1800 mg/day for up to 6 months. Maximum study participation was 94 weeks: a screening period up to 12 weeks to establish baseline seizure frequency, up to 26 weeks of treatment, a 52 week extension for subjects who benefited from ganaxolone treatment, and up to 4 weeks of down titration period. […] Refractive cases of LGS or CSWS that had prior response to steroid or ACTH could also have been enrolled.
Ganaxolone oral suspension was administered through an oral dosing syringe by parent or legal guardian 3 times daily (TID), following the morning, noon, and evening meal or snack. Each dose was separated by a minimum of 4 hours and a maximum of 8 hours. A missed dose of ganaxolone could have been taken up to 4 hours before the next scheduled dose; otherwise, the missed dose was not to be given.
Ganaxolone capsules were administered with a glass of water or other liquid 2 times daily (BID), following the morning and evening meal or snack. Ganaxolone was provided as either an oral suspension or capsules based on the subject's weight at study entry. Ganaxolone oral suspension was administered through an oral dosing syringe TID by a parent or guardian, following the morning, midday, and evening meal or snack. Each dose was separated by a minimum of 4 hours and a maximum of 8 hours. Ganaxolone capsules were administered BID, following the morning and evening meal or snack. […]

In the case of `CC(=O)[C@H]1CC[C@H]2[C@@H]3CC[C@H]4C[C@](C)(O)CC[C@]4(C)[C@H]3CC[C@]12C` [Ganaxolone, 3α-hydroxy-3β-methyl-5α-pregnan-20-one], the “Improvement in seizure free days, individual patients” value (2 out of 4 completed CDKL5 patients) was 78% and 368%, the “Patients with >50% reduction in seizure counts” value (4 completed CDKL5 patients) was 3 out of 4 and the “Patients with increase/improvement in seizure-free days” value (7 CDKL5 patients) was “Four of the 7; also recorded: Five of the 7”. For the same compound, the “Mean percent change in 28-day total seizure frequency from baseline to Week 26” value (CDD cohort, PP Population) was 20.55%, the “Median percent change in 28-day total seizure frequency from baseline to Week 26” value (CDD cohort, PP Population) was 37.70% and the “Clinical global impression of improvement: much improved” value (CDD cohort, end of Week 26) was 3 subjects. The “Clinical global impression of improvement: very much improved” value (CDD cohort, end of Week 26) was 0 subjects, the Overall responder rate (CDKL5, 3 months (3/7 subjects)) was 43% and the Overall responder rate (CDKL5, 6 months (2/6 subjects)) was 33%. For the same compound, the “28-day seizure frequency, sum of individual seizures and clusters, post-baseline 26-week open-label period, Mean (SD)” value (CDKL5 N=7, MITT) was 137.70, the “28-day seizure frequency, sum of individual seizures and clusters, post-baseline 26-week open-label period, Median” value (CDKL5 N=7, MITT) was 67.29 and the “28-day seizure frequency, sum of individual seizures and clusters, post-baseline through Month 3 (Day 91), Mean (SD)” value (CDKL5 N=7, MITT) was 129.78. For the same compound, the “28-day seizure frequency, sum of individual seizures and clusters, post-baseline through Month 3 (Day 91), Median” value (CDKL5 N=7, MITT) was 55.69, the “Percent change from baseline (at Day 91), 28-day seizure frequency, sum of individual seizures and clusters, Mean (SD)” value (CDKL5 N=7, MITT) was 31.23% and −31.23% and the “Percent change from baseline (at Day 91), 28-day seizure frequency, sum of individual seizures and clusters, Median” value (CDKL5 N=7, MITT) was 47.34% and −47.34%. The “Percent change from baseline (at Week 26), 28-day seizure frequency, sum of individual seizures and clusters, Mean (SD)” value (CDKL5 N=7, MITT) was 20.55% and −20.55%, the “Percent change from baseline (at Week 26), 28-day seizure frequency, sum of individual seizures and clusters, Median” value (CDKL5 N=7, MITT) was 37.70% and −37.70% and the “% change seizure rate-12 month, Mean” value (CDKL5 cohort, N=3) was −56.12%. For the same compound, the “% change seizure rate-12 month, Median” value (CDKL5 cohort, N=3) was −47.79%, the “Post-baseline 28-day seizure rate-12 month, Mean” value (CDKL5 cohort, N=3) was 114.39 and the “Post-baseline 28-day seizure rate-12 month, Median” value (CDKL5 cohort, N=3) was 76.54. For the same compound, the “% change seizure rate-3 month, Mean” value (CDKL5 cohort, N=7) was −32.67%, the “% change seizure rate-3 month, Median” value (CDKL5 cohort, N=7) was −49.99% and the “% change seizure rate-6 month, Mean” value (CDKL5 cohort, N=7) was −16.81%. For the same compound, the “% change seizure rate-6 month, Median” value (CDKL5 cohort, N=7) was −47.80%, the “Post-baseline 28-day seizure rate-3-month, Mean” value (CDKL5 cohort, N=7) was 821.16 and the “Post-baseline 28-day seizure rate-3-month, Median” value (CDKL5 cohort, N=7) was 57.87. The “Post-baseline 28-day seizure rate-6 month, Mean” value (CDKL5 cohort, N=7) was 1373.85, the “Post-baseline 28-day seizure rate-6 month, Median” value (CDKL5 cohort, N=7) was 67.29 and the “28-day individual seizure frequency, post-baseline 26-Week open-label period, Mean (SD)” value (CDKL5 n=7, MITT) was 103.70. The “28-day individual seizure frequency, post-baseline 26-Week open-label period, Median” value (CDKL5 n=7, MITT) was 67.29, the “28-day individual seizure frequency, post-baseline through Month 3 (Day 91), Mean (SD)” value (CDKL5 n=7, MITT) was 103.69 and the “28-day individual seizure frequency, post-baseline through Month 3 (Day 91), Median” value (CDKL5 n=7, MITT) was 53.82. The “Percent change from baseline (at Day 91), 28-day individual seizure frequency, Mean (SD)” value (CDKL5 n=7, MITT) was −30.33%, the “Percent change from baseline (at Day 91), 28-day individual seizure frequency, Median” value (CDKL5 n=7, MITT) was −46.64% and the “Percent change from baseline (at Week 26), 28-day individual seizure frequency, Mean (SD)” value (CDKL5 n=7, MITT) was −21.06%. The “Percent change from baseline (at Week 26), 28-day individual seizure frequency, Median” value (CDKL5 n=7, MITT) was −38.10%, the “Median percent reduction in seizures” value (children with CDKL5 disorder) was 43% and the “Reduction in seizure counts, individual patients” value (completed CDKL5 patients with >50% reduction) was 52% and 59% and 88%. For the same compound, the “Patients with improvement in seizure control that persists for up to 6 months” value (first 6 CDKL5 patients, preliminary) was 3 of 6.
